From article PMC12842892, “Truncated Equinin B Variants Reveal the Sequence Determinants of Antimicrobial Selectivity” (Marine Drugs, 2026)
Converted amounts (≈) assume the structure as drawn. Where two headings read alike, the source gives them in different places. Where a SMILES comes first, the peptide text is derived from it. Where no end group is shown, it is not given here.

How the values were obtained:
[1] = test system: Gram-positive and Gram-negative bacteria; settings: cited from earlier work
From the text: Even though the discovery of antibiotics revolutionized medicine, their inappropriate use has enabled the spread of resistant bacteria and rendered commercially available antibiotics ineffective. Antibiotic resistance (AR) is one of the greatest threats, and the development of new molecules with antibacterial activity has become a global priority. Antimicrobial peptides (AMPs), naturally occurring defense molecules found across many species, represent a powerful alternative antibacterial strategy against antibiotic-resistant pathogens. As part of the innate immune response, ...

[2] = test system: Staphylococcus epidermidis DSM 20044; format: cell-based
Description: (§1) For these studies we used reference strains Escherichia coli ATCC25922, Bacillus subtilis 168c, Staphylococcus epidermidis DSM 20044 (DSMZ Gmbh, Brauschweig, Germany) and Enterococcus hirae DSM 3320 (DSMZ Gmbh, Germany). Bacterial cells were inoculated into Mueller–Hinton Broth II (MHB II; Sigma-Aldrich, Steinheim, Germany) and grown to the mid-logarithmic phase, washed in sodium buffered saline (PBS, 137 mM NaCl, 2.7 mM KCl, 10 mM Na2HPO4, and 2 mM KH2PO4, pH 7.4). The culture was adjusted to ~1 × 10^6 CFU/mL and dispensed into 96-well microtiter plates. Peptides were tested in two-fold serial dilutions across a concentration range of 0.4–100 µM, each concentration assayed in duplicate. Growth control wells (bacteria + medium, no peptide) and sterility control wells (medium only) were included. In parallel, the inoculum density and purity were verified by plating serial dilutions of the bacterial culture on MHB agar. After incubation at 37 °C for 20 h under static conditions, bacterial growth was quantified by measuring optical density at 620 nm (OD 620). […] The experiment was repeated in three independent biological replicates.

E. hirae = experiment: Membrane permeability assay (propidium iodide uptake), E. hirae; format: cell-based, Enterococcus hirae; settings: 1 × 10^7 cells/mL in PBS; PI 2.5 µg/mL; 37 °C, 120 min
Description: (§2) Bacterial membrane permeabilization was evaluated using propidium iodide (PI) uptake. PI is a membrane-impermeable dye: it cannot cross intact bacterial cytoplasmic membranes, but when the membrane integrity is compromised (for example, via peptide-mediated permeabilization), PI enters the cell, intercalates into nucleic acids (DNA and RNA) and fluorescence increases markedly. B. subtilis, E. hirae and S. epidermidis cells were grown to mid-logarithmic phase, harvested by centrifugation, washed once with PBS and diluted to a concentration of 1 × 10^7 cells/mL using PBS instead of growth medium. […] Fluorescence (excitation 535 nm, emission 617 nm) was monitored every 2 min for 120 min at 37 °C using a microplate reader (GloMax®, Promega, Madison, WI, USA). The time-course fluorescence curves were recorded for each peptide concentration (in duplicate for each time point, and the entire experiment was repeated three independent times). From each time-course fluorescence curve (for a given peptide concentration), a constant time-window (for example minutes 10 to 20) was selected where the fluorescence signal was stable or in the linear uptake phase. The fluorescence values within that window were averaged to provide a representative fluorescence uptake value for that peptide concentration. […]

S. epidermidis = experiment: Membrane permeability assay (propidium iodide uptake), S. epidermidis; format: cell-based, Staphylococcus epidermidis; settings: 1 × 10^7 cells/mL in PBS; PI 2.5 µg/mL; 37 °C, 120 min
Description: as §2

B. subtilis = experiment: Membrane permeability assay (propidium iodide uptake), B. subtilis; format: cell-based, Bacillus subtilis; settings: 1 × 10^7 cells/mL in PBS; PI 2.5 µg/mL; up to 400 µM; 37 °C, 120 min; fluorescence 535/617 nm; three independent experiments in duplicates
Description: as §2

[3] = test system: Escherichia coli ATCC25922; format: cell-based; settings: E. coli ATCC25922; cation-adjusted MHB II; ~1 × 10^6 CFU/mL; two-fold dilutions; 37 °C, 20 h; OD 620; three independent replicates, duplicates
Description: as §1

Which results are given for “GQCQRKCLGHCSKKCPKHPQCRKRCIRRCFGYCL [Equinin B, 34-residue marine antimicrobial peptide isolated from the tentacle of Actinia equina]”?
bactericidal concentrations [1]: 0.25 mg/mL; minimum inhibitory concentrations (MICs) [1]: 1000 µg/mL

Which “MIC against S. epidermidis” value ([2]; DSM 20044, 20 h) does the source give for `CC[C@H](C)[C@H](NC(=O)[C@H](CS)NC(=O)[C@@H](N)CCCNC(=N)N)C(=O)N[C@@H](CCCNC(=N)N)C(=O)N[C@@H](CCCNC(=N)N)C(=O)N[C@@H](CS)C(=O)N[C@@H](Cc1ccccc1)C(=O)NCC(=O)N[C@@H](Cc1ccc(O)cc1)C(=O)N[C@@H](CS)C(=O)N[C@@H](CC(C)C)C(=O)O` [EB3, Arg-Cys-Ile-Arg-Arg-Cys-Phe-Gly-Tyr-Cys-Leu] (H-RCIRRCFGYCL-OH) here?
Its value is 25 µM (≈ 34.7 µg/mL).

With “LL-37 (LLGDFFRKSKEKIGKEFKRIVQRIKDFLRNLVPRTES; Antibacterial peptide LL-37; UniProt P49913 134-170, looked up)” as the compound, how does the “membrane permeabilization of E. hirae (PI uptake), in words” value (E. hirae) read?
The value was “unable to permeabilize”.

And the “membrane permeabilization of S. epidermidis (PI uptake), in words” value (S. epidermidis)?
Its value is “unable to permeabilize”.

What about the “membrane permeabilization of B. subtilis (PI uptake), in words” value (B. subtilis) of the same compound?
The value was “extensive membrane permeabilization”.

Which results are given for “RRIRRRGYRL-OH [EB3a-C, Arg-Arg-Ile-Arg-Arg-Arg-Gly-Tyr-Arg-Leu]”?
MIC90, Escherichia coli [3]: >100 µg/mL; antimicrobial activity against S. epidermidis, in words ([2]; MIC assay, up to 100 µM): abolished activity; MIC90, Staphylococcus epidermidis ([2]; S. epidermidis DSM 20044, cation-adjusted MHB II, ~1 × 10^6 CFU/mL, two-fold dilutions, 37 °C, 20 h, OD 620, three independent replicates, duplicates): >100 µg/mL

Which “MIC90, Staphylococcus epidermidis” value ([2]; DSM 20044, 20 h) does the source give for “RRIRRRFGYRL [EB3-C, Arg-Arg-Ile-Arg-Arg-Arg-Phe-Gly-Tyr-Arg-Leu]” here?
Its value is 25 to 50 µg/mL.
